The values that follow come from US10046003B2, “Composition for treating neuropathy, a process and a method of treatment thereof” (INDUS BIOTECH PRIVATE LIMITED, priority 2013, dated 2018).

The assay deals with PSNL rats. Kind of assay: Motor nerve conduction velocity, comparison of Test composition vs alcoholic extract of fenugreek vs Pinitol stand-alone in PSNL rat model. The class given is in vivo. As for the experimental part: To compare efficacy of test Composition with Alcoholic Extract of Fenugreek (30 mg/kg p.o) and Pinitol stand-alone (30 mg/kg) in neuropathy, PSNL rat model is used. The sciatic nerve of the rats is exposed and they received injury by a process where a 4-0 silk suture are inserted into the nerve with ⅜ curve, with a reverse-cutting mini needle and is tightly ligated so that the dorsal ⅓-½ of the nerve thickness are trapped in the ligature. They received only vehicle (Distilled water). Male wistar rats weighing 200-220 g average are used for the study. 500 g of fenugreek seeds is extracted by using alcoholic extraction procedure. This extract is obtained in a dry form by using vacuum evaporation technique. […] When compared with sham operated rats there is significant decrease in nerve conduction velocity in PSNL control rats. […] The data was analysed by one way ANOVA followed by Bonferroni's Multiple Comparison Test, wherein: […]

SMILES strings stand for the structures.

As to `CO[C@H]1[C@H](O)[C@@H](O)[C@@H](O)[C@H](O)[C@@H]1O` [Pinitol stand-alone, 3-O-methyl-1,2,4 cis-3,5,6 transhexahydroxycyclohexanol], where the note is “30 mg/kg p.o., day 28”, the “nerve conduction velocity when compared with PSNL control rats” value is “marginal effect”. Besides, the “Motor Nerve Conduction Velocity (m/s)” value (PSNL rats, 30 mg/kg p.o. chronic administration, Day 28 (after treatment)) is listed as 13.97 m/s.
